{
  "source": "paper PMC10820135",
  "about": "“Pharmacokinetic, Tissue Distribution, Metabolite, and Toxicity Evaluation of the Matrine Derivative, (6aS, 10S, 11aR, 11bR, 11cS)-10-Methylaminododecahydro-3a, 7a-Diaza-benzo (de) Anthracene-8-thione” (Molecules, 2024)",
  "assay": "Plasma pharmacokinetics of MASM in rats, non-compartmental analysis",
  "type": "in vivo, Sprague-Dawley rats",
  "settings": "rat",
  "description": "UHPLC analysis was performed using a Thermo Accela AS system, employing an ACQUITY UPLC®BEH C18 (Waters Corporation, Wexfords, Ireland) (1.7 µm, 2.1 × 100 mm) column and a binary solvent system consisting of water containing 0.1% formic acid as mobile phase A and acetonitrile as mobile phase B. For pharmacokinetic evaluation, the gradient elution was set as follows: 97% A from 0 to 2 min, 97–70% A from 2 to 3 min, 70–20% A from 3 to 3.5 min, 20% A from 3.5 to 3.6 min, 20–97% A from 3.6 to 3.7 min, and 97% A from 3.7 to 5 min. For the metabolic test, the gradient elution in full scan mode was set as follows: 97% A from 0 to 2 min, 97–70% A from 2 to 4 min, 70–20% A from 4 to 6 min, 20% A from 6 to 7 min, 20–97% A from 7 to 8 min, and 97% A from 8 to 10 min. The flow rate was 0.2 mL/min, with a temperature of 40 °C maintained and an injection volume of 5 μL. The QQQ-MS/MS analysis was conducted using a Thermo TSQ QUANTUM ACCESS MAX system equipped with an electrospray ionization (ESI) source. The spray voltages were set at 4.0 kV and 2.5 kV for positive and negative ion modes, respectively; capillary and vaporizer temperatures were 320 °C and 350 °C, respectively; sheath and aux gas pressures were 35 and 10 psi, respectively.\nA precisely measured MASM sample weighing 400 mg was dissolved in normal saline to create aqueous solutions with concentrations of 8.0, 6.0, and 1.5 mg/mL for intraperitoneal, oral, and intravenous administrations at doses of 80 mg/kg, 60 mg/kg, and 15 mg/kg, respectively.\nSeventy Sprague-Dawley rats were fasted overnight before dosing, with free access to water. Subsequently, the rats were randomly and equally divided into 7 groups: the control groups received 3 different routes of administration: intravenous, intraperitoneal, and intragastric (NS, saline 1 mL/100 g); MASM intraperitoneal group (A, i.p. 80 mg/kg), MASM intragastrical group (B, i.g. 60 mg/kg), MASM intravenous group (C, i.v. 15 mg/kg), and DMASM intragastrical group (D, i.g. 60 mg/kg). It is important to note that the recommended clinical dose of matrine injection is 0.15 g, which is equivalent to a dosage of 15 mg/kg in rats. MASM was administered via tail vein injection at a dosage of 1 mL/100 g for intravenous dosing, while for intraperitoneal dosing, MASM was injected at the lower-right side of the abdomen of rats. Blood samples (approximately 0.3 mL) were collected from the eye socket at specific time intervals (0.083, 0.167, 0.25, 0.5, 1, 1.5, 2, 4, 6, 9, 12, and 24 h) after administration for each group. These samples were then placed in centrifuge tubes containing heparin sodium, subjected to centrifugation at 4000 rpm for 15 min, and the resulting supernatant was collected and stored at −80 °C until further analysis. During the analysis of the plasma sample, protein precipitation was carried out using a plasma-to-acetonitrile ratio of 1:3, and 5μL of the resulting supernatant was injected. The developed UHPLC-QQQ-MS/MS analysis method underwent a series of validations, and the peak area of the plasma sample was obtained employing the Xcalibur 2.2 data-processing system. The concentrations of MASM in plasma were then determined using linear regression equations. Subsequently, the in vivo pharmacokinetic parameters were calculated using the non-compartment model in DAS 3.0 software. Blood concentration–time curves were generated using Prism 8.0 (GraphPad Software Inc., San Diego, CA, USA).",
  "key": {"[1]": {"settings": "Sprague-Dawley, plasma, iv, i.v. 15 mg/kg, n = 6, mean ± SD"}, "[2]": {"settings": "i.g. 60 mg/kg, n = 6, mean ± SD"}, "[3]": {"settings": "i.p. 80 mg/kg, n = 6, mean ± SD"}},
  "note": "Like-named read-outs stand apart in the source and are kept apart here.",
  "data": [
    {"compound": "CNC1CC(=S)N2CC3CCCN4CCCC(C34)C2C1", "note": "[MASM, (6aS, 10S, 11aR, 11bR, 11cS)-10-methylaminododecahydro-3a, 7a-diaza-benzo (de) anthracene-8-thione]", "values": [
      {"measurement": "bioavailability", "setting": "Sprague-Dawley, plasma, intraperitoneal, i.p. 80 mg/kg vs i.v. 15 mg/kg, n = 6, mean ± SD, read-out: F(%) bioavailability", "result": "54 ± 19.4", "unit": "%"},
      {"measurement": "Cmax", "setting": "Sprague-Dawley, plasma, ip, i.p. 80 mg/kg, n = 6, mean ± SD", "result": "2210 ± 930", "unit": "ng/mL"},
      {"measurement": "half-life", "setting": "Sprague-Dawley, plasma, ip, i.p. 80 mg/kg, n = 6, mean ± SD, read-out: t 1/2 (elimination half-life) (converted)", "result": "9.97 ± 3.95", "unit": "h"},
      {"measurement": "Cmax", "setting": "[1]", "result": "780 ± 540", "unit": "ng/mL"},
      {"measurement": "clearance", "setting": "[1]", "result": 71.7, "unit": "mL/min/kg"},
      {"measurement": "Vd", "setting": "Sprague-Dawley, plasma, iv, i.v. 15 mg/kg, n = 6, mean ± SD, read-out: V d (apparent volume of distribution)", "result": "36.6 ± 17.8", "unit": "L/kg"},
      {"measurement": "half-life", "setting": "Sprague-Dawley, plasma, iv, i.v. 15 mg/kg, n = 6, mean ± SD, read-out: t 1/2 (elimination half-life) (converted)", "result": "10.5 ± 8.84", "unit": "h"},
      {"measurement": "bioavailability", "setting": "Sprague-Dawley, plasma, oral, i.g. 60 mg/kg vs i.v. 15 mg/kg, n = 6, mean ± SD, read-out: F(%) absolute intragastrical bioavailability", "result": "44.5 ± 12.3", "unit": "%"},
      {"measurement": "half-life", "setting": "Sprague-Dawley, plasma, other: intravenous, intravenous, intraperitoneal or intragastric, read-out: t1/2 regardless of the route of administration (converted)", "result": "~10", "unit": "h"},
      {"measurement": "Cmax", "setting": "Sprague-Dawley, plasma, po, i.g. 60 mg/kg, n = 6, mean ± SD", "result": "1380 ± 570", "unit": "ng/mL"},
      {"measurement": "half-life", "setting": "Sprague-Dawley, plasma, po, i.g. 60 mg/kg, n = 6, mean ± SD, read-out: t 1/2 (elimination half-life) (converted)", "result": "10.2 ± 4.95", "unit": "h"},
      {"measurement": "Tmax", "setting": "Sprague-Dawley, plasma, ip, 80 mg/kg, i.p. 80 mg/kg, n = 6, mean ± SD", "result": "0.21 ± 0.04", "unit": "h"},
      {"measurement": "AUC(0-t)", "setting": "Sprague-Dawley, plasma, ip, 80 mg/kg, i.p. 80 mg/kg, n = 6, mean ± SD, read-out: AUC(0–24)", "result": "15600 ± 5610", "unit": "ng·h/mL"},
      {"measurement": "AUC(0-t)", "setting": "Sprague-Dawley, plasma, ip, 80 mg/kg, i.p. 80 mg/kg, n = 6, mean ± SD, read-out: AUC(0–t)", "result": "12400 ± 5320", "unit": "ng·h/mL"},
      {"measurement": "Tmax", "setting": "Sprague-Dawley, plasma, iv, 15 mg/kg, i.v. 15 mg/kg, n = 6, mean ± SD", "result": "0.17 ± 0.17", "unit": "h"},
      {"measurement": "AUC(0-t)", "setting": "Sprague-Dawley, plasma, iv, 15 mg/kg, i.v. 15 mg/kg, n = 6, mean ± SD, read-out: AUC(0–24)", "result": "5410 ± 3220", "unit": "ng·h/mL"},
      {"measurement": "AUC(0-t)", "setting": "Sprague-Dawley, plasma, iv, 15 mg/kg, i.v. 15 mg/kg, n = 6, mean ± SD, read-out: AUC(0–t)", "result": "4280 ± 2400", "unit": "ng·h/mL"},
      {"measurement": "Tmax", "setting": "Sprague-Dawley, plasma, po, 60 mg/kg, i.g. 60 mg/kg, n = 6, mean ± SD", "result": 1.3, "unit": "h"},
      {"measurement": "AUC(0-t)", "setting": "Sprague-Dawley, plasma, po, 60 mg/kg, i.g. 60 mg/kg, n = 6, mean ± SD, read-out: AUC(0–24)", "result": "13700 ± 7550", "unit": "ng·h/mL"},
      {"measurement": "AUC(0-t)", "setting": "Sprague-Dawley, plasma, po, 60 mg/kg, i.g. 60 mg/kg, n = 6, mean ± SD, read-out: AUC(0–t)", "result": "10900 ± 4780", "unit": "ng·h/mL"},
      {"measurement": "CL", "setting": "[2]", "result": "93.3 ± 49", "unit": "mL/min/kg"},
      {"measurement": "V d (apparent volume of distribution)", "setting": "[2]", "result": "69.43 ± 22.58", "unit": "L/kg"},
      {"measurement": "CL", "setting": "[3]", "result": "95.5 ± 33.8", "unit": "mL/min/kg"},
      {"measurement": "V d (apparent volume of distribution)", "setting": "[3]", "result": "84.74 ± 57.17", "unit": "L/kg"}
    ]}
  ]
}
